# Experimental data published in US20140289973A1, “1-Hexyl-1H-Pyrazole-4,5-Diamine Hemisulfate, and Its Use in Dyeing Compositions” (The Procter & Gamble Company, priority 2012, published 2014).
# Experiment: Storage stability of C6-pyrazole salts, HPLC measurement of dimer formation
# Type: physicochemical
# Conditions: for Amount of dimers at the time point t0: t0, sample of about 1.5 g spread on filter paper, HPLC, dimer of formula (II); for Amount of dimers at the time point t1: t1, 23 days in closed dark storage room at 21° C., controlled humidity; for Amount of dimers at the time point t2: t2, 26 days: 23 days dark, then 3 days without light protection under lab hood at room temperature, higher air humidity; for Amount of dimers at the time point t3: t3, 31 days: 5 extra days under the same conditions as t2
# Description: As summarized in the table below, three 1-hexyl-1H-pyrazole-4,5-diamine salts were synthesized through precipitation of the free base in presence of the corresponding acids and purification to obtain the hemisulfate, sulfate and dihydrochloride salts. Each sample was then placed on paper.
# In order to measure and compare the stability of the three different salts, a small amount of each sample was taken at four different time points and an HPLC analysis was conducted in order to measure the formation of the undesired dimer of formula (II).
"Rate of formation of the dimer impurity (compared with the sulfate and dihydrochloride salts, storage conditions of table 1)",Stability compared with the corresponding sulfate and dihydrochloride salts (conditions of storage described in table 1),Amount of dimers at the time point t0 [ppm],Amount of dimers at the time point t1 [ppm],Amount of dimers at the time point t2 [ppm],Amount of dimers at the time point t3 [ppm],Structure (SMILES)
much lower,more stable,6,37,43,74,"CCCCCCn1ncc(N)c1N.CCCCCCn1ncc(N)c1N.O=S(=O)(O)O [C6-Pyrazole hemisulfate, 1-hexyl-1H-pyrazole-4,5-diamine hemisulfate]"
,,11,461,726,1083,CCCCCCn1ncc(N)c1N.O=S(=O)(O)O [C6-Pyrazole sulfate]
,,45,511,772,1323,CCCCCCn1ncc(N)c1N.Cl.Cl [C6-Pyrazole x 2 HCl]
